Reference: ChEMBL document CHEMBL1201862, “PubChem BioAssay data set” (2004)
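Cells were grown in 96-well plates and exposed to each compound for 48 hours at five concentrations; endpoints were interpolated linearly between bracketing concentrations, or set to the highest concentration if not reached. GI50 marks 50% less growth.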 The source made the active and inactive calls. Rule as the data show it: active = GI50 up to about 1.1 µM and inactive = higher.

Experiments:
Assay in all cases: DTP human tumour cell line panel, 48 h
KM12 = test system: KM12
SR = test system: SR
SK-MEL-2 = test system: SK-MEL-2
PC-3 = test system: PC-3
LOX IMVI = test system: LOX IMVI
HOP-62 = test system: HOP-62
M14 = test system: M14
CCRF-CEM = test system: CCRF-CEM
MCF7 = test system: MCF7
HCT-116 = test system: HCT-116
SF-295 = test system: SF-295
A498 = test system: A498
OVCAR-8 = test system: OVCAR-8
UACC-257 = test system: UACC-257
EKVX = test system: EKVX
A549 = test system: A549
K562 = test system: K562
SF-539 = test system: SF-539
SF-268 = test system: SF-268
OVCAR-3 = test system: OVCAR-3

SMILES	GI50 (KM12)	GI50 (SR)	GI50 (SK-MEL-2)	GI50 (PC-3)	GI50 (LOX IMVI)	GI50 (HOP-62)	GI50 (M14)	GI50 (CCRF-CEM)	GI50 (MCF7)	GI50 (HCT-116)	GI50 (SF-295)	GI50 (A498)	GI50 (OVCAR-8)	GI50 (UACC-257)	GI50 (EKVX)	GI50 (A549)	GI50 (K562)	GI50 (SF-539)	GI50 (SF-268)	GI50 (OVCAR-3)
C/C(=N\NC(=S)N1CCN(c2ccccn2)CC1)c1ncccn1	0.254 µM (active)	0.0863 µM (active)	0.31 µM (active)	4.37 µM (inactive)	0.0986 µM (active)	0.106 µM (active)	0.0515 µM (active)	0.00615 µM (active)	0.0108 µM (active)	0.00395 µM (active)	0.0594 µM (active)	2.07 µM (inactive)	0.0289 µM (active)	0.0165 µM (active)	0.291 µM (active)	0.166 µM (active)	0.00711 µM (active)	0.527 µM (active)	0.0323 µM (active)	–
Cc1ccc(S(=O)(=O)N(CC(O)COc2ccccc2)c2c(F)c(F)c(F)c(F)c2F)cc1 (stereo not given)	20.7 µM (inactive)	20.7 µM (inactive)	16.4 µM (inactive)	13.6 µM (inactive)	13.9 µM (inactive)	16.7 µM (inactive)	20 µM (inactive)	< 0.01 µM (active)	10.5 µM (inactive)	17 µM (inactive)	17.1 µM (inactive)	17.1 µM (inactive)	17.1 µM (inactive)	–	17.9 µM (inactive)	13.4 µM (inactive)	–	19.8 µM (inactive)	14.5 µM (inactive)	17.3 µM (inactive)
C/C(Cl)=N/OC(=O)Nc1ccc(S(N)(=O)=O)c(C)c1	18.6 µM (inactive)	1.86 µM (inactive)	18.6 µM (inactive)	18.3 µM (inactive)	2.27 µM (inactive)	19.9 µM (inactive)	9.14 µM (inactive)	1.07 µM (active)	5.38 µM (inactive)	12 µM (inactive)	21 µM (inactive)	18.2 µM (inactive)	24.7 µM (inactive)	14.7 µM (inactive)	5.75 µM (inactive)	17.5 µM (inactive)	1.34 µM (inactive)	–	26.1 µM (inactive)	4.46 µM (inactive)
Cc1ccc(/C=C2\CCCC(CN3CCCCC3)C2=O)cc1 (stereo not given)	1.27 µM (inactive)	0.767 µM (active)	2.89 µM (inactive)	2.79 µM (inactive)	1.84 µM (inactive)	20.3 µM (inactive)	–	0.757 µM (active)	0.721 µM (active)	1.76 µM (inactive)	17.2 µM (inactive)	13.4 µM (inactive)	2.64 µM (inactive)	1.93 µM (inactive)	17.6 µM (inactive)	17.7 µM (inactive)	1.57 µM (inactive)	4.42 µM (inactive)	2.09 µM (inactive)	1.87 µM (inactive)
O=C1Nc2ccccc2C1Cc1ccccc1 (stereo not given)	> 100 µM (inactive)	> 100 µM (inactive)	> 100 µM (inactive)	> 100 µM (inactive)	> 100 µM (inactive)	> 100 µM (inactive)	> 100 µM (inactive)	> 100 µM (inactive)	> 100 µM (inactive)	> 100 µM (inactive)	–	> 100 µM (inactive)	> 100 µM (inactive)	> 100 µM (inactive)	56.1 µM (inactive)	> 100 µM (inactive)	> 100 µM (inactive)	> 100 µM (inactive)	> 100 µM (inactive)	> 100 µM (inactive)
c1ccc(-c2nc(-c3ccccc3)c(-c3ccccc3)[nH]2)cc1	> 93.8 µM (inactive)	17.5 µM (inactive)	> 100 µM (inactive)	> 100 µM (inactive)	> 100 µM (inactive)	> 85.5 µM (inactive)	> 100 µM (inactive)	17 µM (inactive)	70.3 µM (inactive)	71.9 µM (inactive)	> 100 µM (inactive)	> 100 µM (inactive)	> 66.1 µM (inactive)	> 85.5 µM (inactive)	> 83.6 µM (inactive)	> 100 µM (inactive)	–	> 100 µM (inactive)	55.2 µM (inactive)	> 100 µM (inactive)
Cc1cn(C2CC(N)C(C(=O)O)O2)c(=O)[nH]c1=O (stereo not given)	> 100 µM (inactive)	> 100 µM (inactive)	> 100 µM (inactive)	> 100 µM (inactive)	–	> 100 µM (inactive)	> 100 µM (inactive)	> 100 µM (inactive)	> 100 µM (inactive)	> 100 µM (inactive)	–	> 100 µM (inactive)	> 100 µM (inactive)	> 100 µM (inactive)	> 100 µM (inactive)	> 100 µM (inactive)	> 100 µM (inactive)	> 100 µM (inactive)	> 100 µM (inactive)	> 100 µM (inactive)
N=C(N)c1ccc(/C=C/c2ccc(C(=N)N)cc2)cc1	> 100 µM (inactive)	> 100 µM (inactive)	27.1 µM (inactive)	64.9 µM (inactive)	> 100 µM (inactive)	41.2 µM (inactive)	> 100 µM (inactive)	> 100 µM (inactive)	96.6 µM (inactive)	> 100 µM (inactive)	34.4 µM (inactive)	14.9 µM (inactive)	85.7 µM (inactive)	65.9 µM (inactive)	46.3 µM (inactive)	39.7 µM (inactive)	49.8 µM (inactive)	–	> 100 µM (inactive)	> 100 µM (inactive)
